Results: ChEMBL document CHEMBL1136211, “Design of quinolinedione-based geldanamycin analogues” (2003)

Experiments:
Type in all cases: functional
Cancer cell lines [1] = test: Concentration required to inhibit growth of cells in 60 cancer cell lines
Cancer cell lines [2] = test: Concentration required to kill cells
Cancer cell lines [3] = test: Concentration required to inhibit total growth of cells in 60 cancer cell lines; conditions: read-out: Log TGI (converted)

| SMILES | GI50 (Cancer cell lines [1]) [µM] | LC50 (Cancer cell lines [2]) [µM] | TGI (Cancer cell lines [3]) [µM] |
| --- | --- | --- | --- |
| O=C1C(NCCCl)=CC(=O)c2nc(-c3ccccc3)ccc21 | 0.0275 | 2.04 | 0.324 |
| O=C1C=C(N2CC2)C(=O)c2nc(-c3ccccc3)ccc21 | 0.263 | 11.2 | 1.78 |
| O=C1C=C(N2CC2)C(=O)c2nc(-c3ccc4ccccc4c3)ccc21 | 3.47 | 40.7 | 10.7 |
| O=C1C(N2CC2)=CC(=O)c2nc(-c3ccc4ccccc4c3)ccc21 | 0.204 | 5.62 | 1.07 |
| O=C1C(N2CC2)=CC(=O)c2nc(-c3ccccc3)ccc21 | 0.0525 | 4.07 | 0.513 |
| O=C1C(N2CC2)=CC(=O)c2nc(-c3ccccn3)ccc21 | 0.646 | 9.77 | 2.45 |
| O=C1/C(=N/CCO)C=C(O)c2nc(-c3ccccc3)ccc21 | 2.95 | 60.3 | 20 |
